Assay results: the supplement of paper PMC11061612

Tests used:
Experiment in all cases: combination Emax (second highest fraction inhibited in the dose matrix, 72 h); higher = more inhibition; extreme values may be limits of the assay
GI-1 (Glioblastoma) = tested on: GI-1 (Glioblastoma)
Outline: (§1)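 Cell lines grown in DMEM/F12 or RPMI with 10% FBS were plated in 1536-well plates and held 24 hours at 37°C, 5% CO2 before 72 hours of exposure to two-drug dose matrices, with DMSO typically at 0.2%. CellTiter-Glo 2.0 luminescence gave viability, which was converted to inhibition. Vehicle wells were set to 0 and blank wells to 1. Combination Emax is the second-highest inhibition in the matrix, and Bliss excess is the observed combination effect minus the expected EA + EB − EA·EB, where EA and EB are the single-agent effects.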

[1] = tested on: KINGS-1 (Low Grade Glioma)
Outline: as §1

[2] = tested on: SCC-9 (Oral Cavity Carcinoma)
Outline: as §1

[3] = tested on: BV-173 (Chronic Myelogenous Leukemia)
Outline: as §1

[4] = tested on: HSC-2 (Oral Cavity Carcinoma)
Outline: as §1

[5] = tested on: H-EMC-SS (Chondrosarcoma)
Outline: as §1

RPMI-7951 (Melanoma) = tested on: RPMI-7951 (Melanoma)
Outline: as §1

[6] = tested on: NCI-N87 (Gastric Carcinoma)
Outline: as §1

[7] = tested on: PF-382 (T-Lymphoblastic Leukemia)
Outline: as §1

[8] = tested on: NCI-H2347 (Lung Adenocarcinoma)
Outline: as §1

[9] = tested on: EBC-1 (Squamous Cell Lung Carcinoma)
Outline: as §1

NH-12 (Neuroblastoma) = tested on: NH-12 (Neuroblastoma)
Outline: as §1

[10] = tested on: SCC-3 (B-Cell Non-Hodgkin's Lymphoma)
Outline: as §1

[11] = tested on: ASH-3 (Thyroid Gland Carcinoma)
Outline: as §1

[12] = tested on: KP-2 (Pancreatic Carcinoma)
Outline: as §1

[13] = tested on: KLE (Endometrial Carcinoma)
Outline: as §1

[14] = tested on: SNU-C1 (Colorectal Carcinoma)
Outline: as §1

[15] = tested on: KU-19-19 (Bladder Carcinoma)
Outline: as §1

BT-20 (Breast Carcinoma) = tested on: BT-20 (Breast Carcinoma)
Outline: as §1

A704 (Kidney Carcinoma) = tested on: A704 (Kidney Carcinoma)
Outline: as §1

| Compound | combination Emax (GI-1 (Glioblastoma)) | combination Emax [1] | combination Emax [2] | combination Emax [3] | combination Emax [4] | combination Emax [5] | combination Emax (RPMI-7951 (Melanoma)) | combination Emax [6] | combination Emax [7] | combination Emax [8] | combination Emax [9] | combination Emax (NH-12 (Neuroblastoma)) | combination Emax [10] | combination Emax [11] | combination Emax [12] | combination Emax [13] | combination Emax [14] | combination Emax [15] | combination Emax (BT-20 (Breast Carcinoma)) | combination Emax (A704 (Kidney Carcinoma)) |
| --- | --- | --- | --- | --- | --- | --- | --- | --- | --- | --- | --- | --- | --- | --- | --- | --- | --- | --- | --- | --- |
| CC1(C)CCC(CN2CCN(c3ccc(C(=O)NS(=O)(=O)c4ccc(NCC5CCOCC5)c([N+](=O)[O-])c4)c(Oc4cnc5[nH]ccc5c4)c3)CC2)=C(c2ccc(Cl)cc2)C1 [Venetoclax] + CN(C)CCCOc1ccc(-c2ccc3ncc4c(c3c2)n(C2CCOCC2)c(=O)n4C)cn1 [AZD0156] (first compound max 1 µM, 7x7, partner max 1 µM) | 0.234 | 0.301 | 0.174 | 0.833 | 0.722 | 0.206 | 0.304 | 0.461 | 0.256 | 0.191 | 0.275 | 0.483 | 0.157 | 0.229 | 0.19 | 0.352 | 0.163 | 0.135 | 0.132 | 0.185 |
| Cc1c2c(nn1C)CSCc1cc(n(C)n1)CSc1cc(c3ccccc3c1)OCCCc1c(C(=O)O)n(C)c3c-2c(Cl)ccc13 [AZD5991] + C[C@@H](Nc1cc(F)cc(F)c1)c1cc(C(=O)N(C)C)cc2c(=O)cc(N3CCOCC3)oc12 [AZD8186] (first compound max 1 µM, 7x7, partner max 3 µM) | 0.883 | 0.366 | 0.378 | 0.93 | 0.963 | 0.476 | 0.939 | 0.442 | 0.27 | 0.279 | 0.307 | 0.313 | 0.409 | 0.46 | 0.254 | 0.493 | 0.439 | 0.212 | 0.614 | 0.496 |
| CN(C)CCCOc1ccc(-c2ccc3ncc4c(c3c2)n(C2CCOCC2)c(=O)n4C)cn1 [AZD0156] + CCN(CCO)CCCOc1ccc2c(Nc3cc(CC(=O)Nc4cccc(F)c4)[nH]n3)ncnc2c1 [AZD2811] (first compound max 1 µM, 7x7, partner max 1 µM) | 0.411 | 0.167 | 0.186 | 0.975 | 0.289 | 0.367 | 0.257 | 0.253 | 0.823 | 0.148 | 0.171 | 0.674 | 0.445 | 0.155 | 0.0724 | 0.334 | 0.205 | 0.349 | 0.198 | 0.156 |
| Cc1c2c(nn1C)CSCc1cc(n(C)n1)CSc1cc(c3ccccc3c1)OCCCc1c(C(=O)O)n(C)c3c-2c(Cl)ccc13 [AZD5991] + CC1(C)CCC(CN2CCN(c3ccc(C(=O)NS(=O)(=O)c4ccc(NCC5CCOCC5)c([N+](=O)[O-])c4)c(Oc4cnc5[nH]ccc5c4)c3)CC2)=C(c2ccc(Cl)cc2)C1 [Venetoclax] (first compound max 1 µM, 7x7, partner max 1 µM) | 0.954 | 0.266 | 0.256 | 0.95 | 0.965 | 0.515 | 0.903 | 0.23 | 0.337 | 0.138 | 0.199 | 0.892 | 0.358 | 0.325 | 0.239 | 0.156 | 0.574 | 0.588 | 0.889 | 0.344 |
| COc1cccc(OCCCN)c1-c1cc(Nc2cnc(C#N)cn2)n[nH]1 [Prexasertib] + CN(C)CCCOc1ccc(-c2ccc3ncc4c(c3c2)n(C2CCOCC2)c(=O)n4C)cn1 [AZD0156] (first compound max 1 µM, 7x7, partner max 1 µM) | 0.966 | 0.528 | 0.46 | 0.97 | 0.776 | 0.493 | 0.953 | 0.706 | 0.9 | 0.42 | 0.545 | 0.918 | 1 | 0.565 | 0.441 | 0.471 | 0.751 | 0.865 | 0.626 | 0.485 |
| COc1cccc(OCCCN)c1-c1cc(Nc2cnc(C#N)cn2)n[nH]1 [Prexasertib] + O=C(c1cc(Cc2n[nH]c(=O)c3ccccc23)ccc1F)N1CCN(C(=O)C2CC2)CC1 [Olaparib] (first compound max 1 µM, 7x7, partner max 10 µM) | 0.933 | 0.405 | 0.464 | 0.994 | 0.782 | 0.31 | 0.974 | 0.668 | 0.897 | 0.378 | 0.603 | 0.893 | 1 | 0.694 | 0.289 | 0.431 | 0.663 | 0.886 | 0.799 | 0.421 |
